pIC50: −log10 of the molar value. The source made the active and inactive calls. No cut-off for these calls is given here.
Assays:
HepG2 = assay: Inhibition of apoB secretion in human HepG2 cells after 40 hrs by ELISA; assay type: functional, cell-based; settings: HepG2, 40 h
[1] = Inhibition of MTP from dog liver microsomes by scintillation counting; set-up: species or system Canis lupus familiaris, Microsome
Mus musculus [2] = assay: Increase in peptide YY level in 3-day high fat diet fed C57BL/6 mouse at 10 mg/kg, po daily for 3 days; assay type: functional, organism-based; set-up: dose 10 mg/kg
Mus musculus [3] = assay: Decrease in plasma triglyceride level in […] C57BL/6 mouse at 10 mg/kg, po daily for 3 days measured after 6 hrs; assay type: functional
Mus musculus [4] = assay: Decrease in total food intake in 3-day high fat diet fed C57BL/6 mouse at 10 mg/kg, po daily for 3 days; assay type: functional
Mus musculus [5] = assay: Decrease in body weight in […] at 10 mg/kg, po daily for 3 days; assay type: functional, C57BL/6

Row | pIC50 (HepG2) | pIC50 [1] | Compound | Activity (Mus musculus [2]) | Activity (Mus musculus [3]) | Activity (Mus musculus [4]) | Activity (Mus musculus [5])
1 | 8.82 | 8.59 | CC(C)(C)c1ccc(-c2ccccc2C(=O)Nc2ccc3nc(C(=O)N[C@H](C(=O)N4CCCC4)c4ccccc4)sc3c2)cc1 | – | – | – | –
2 | 8.16 | 7.77 | Cc1csc2nc(-c3ccccc3C(=O)Nc3ccc4nc(C(=O)N[C@H](C(=O)N(C)Cc5ccc(F)cc5)c5ccccc5)sc4c3)cn12 | inactive | inactive | inactive | inactive
3 | 7.46 | – | CC(C)(C)c1ccc(-c2ccccc2C(=O)Nc2ccc3nc(C(=O)N[C@@H](C(=O)N4CCCC4)c4ccccc4)sc3c2)cc1 | – | – | – | –
4 | 8.19 | 8.02 | CCCCN(C)C(=O)[C@@H](NC(=O)c1nc2ccc(NC(=O)c3ccccc3-c3ccc(C(C)(C)C)cc3)cc2s1)c1ccccc1 | – | – | – | –

From ChEMBL document CHEMBL1153899, “Discovery of benzothiazole derivatives as efficacious and enterocyte-specific MTP inhibitors” (Bioorg Med Chem Lett, 2009)
